Source: patent US7780873B2, “Bioactive complexes compositions and methods of use thereof” (Texas A&M University System, priority 2004, dated 2010)
Like-named read-outs stand apart in the source and are kept apart here.

Experiments:
[1] = Lipid oxidation of O/W Menhaden oil-based emulsions; assay type: physicochemical; details: gallic acid alone or with coenzyme Q10; emulsified with egg yolk PC; pH 6.0; GC
[2] = test system: human promyelocytic leukemia HL-60 cells; details: cited from earlier work
[3] = rat duodenal infusion, cited from earlier work
[4] = from emulsions containing corn oil

Compound: O=C(O)c1cc(O)c(O)c(O)c1 [gallic acid]
- pro-/antioxidative properties of control samples [1]: prooxidative properties
- apoptotic cell death [2]: induced apoptotic cell death

Compound: CC1=C(/C=C/C(C)=C/C=C/C(C)=C/C=C/C=C(C)/C=C/C=C(C)/C=C/C2=C(C)C(=O)[C@@H](O)CC2(C)C)C(C)(C)C[C@H](O)C1=O [astaxanthin]
- average recovery in the lymph [3, 4]: 13%
- average recovery in the lymph ([3]; from olive oil emulsion): 20%

Compound: CC(C)=CCC/C(C)=C/C=C/C(C)=C/C=C/C(C)=C/C=C/C=C(C)/C=C/C=C(C)/C=C/C=C(\C)CCC=C(C)C [LYC, lycopene]
- average recovery in the lymph [3, 4]: 2.5%
- average recovery in the lymph ([3]; from olive oil emulsion): 6%
